Data published in paper PMC3005762 (Chemical communications (Cambridge, England), 2010).

Target: T1, DC-SIGN (Homo sapiens, UniProt Q9NNX6)
T1 sequence (Q9NNX6 59-404 limits assumed): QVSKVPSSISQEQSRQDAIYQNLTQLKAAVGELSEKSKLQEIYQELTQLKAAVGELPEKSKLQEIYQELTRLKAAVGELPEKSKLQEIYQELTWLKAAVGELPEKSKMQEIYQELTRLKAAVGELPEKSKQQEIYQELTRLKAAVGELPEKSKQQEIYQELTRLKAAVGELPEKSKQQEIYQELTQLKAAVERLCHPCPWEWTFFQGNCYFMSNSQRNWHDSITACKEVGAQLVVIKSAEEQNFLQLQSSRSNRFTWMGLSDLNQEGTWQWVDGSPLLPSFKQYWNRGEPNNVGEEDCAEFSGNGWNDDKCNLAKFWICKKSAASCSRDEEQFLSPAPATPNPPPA
Assay type: binding

For `CC(=O)N[C@@H]1C(O)O[C@H](CO)[C@@H](O)[C@@H]1O` (stereo partly shown) [N-acetylmannosamine], the IC50 was 11.2 ± 0.7 mM.
